As usually defined, the IC50 is the midpoint of a concentration-inhibition curve. Read a high IC50 as lower potency.

Sequence of H1047R PIK3CA enzyme (P42336 whole entry H1047R): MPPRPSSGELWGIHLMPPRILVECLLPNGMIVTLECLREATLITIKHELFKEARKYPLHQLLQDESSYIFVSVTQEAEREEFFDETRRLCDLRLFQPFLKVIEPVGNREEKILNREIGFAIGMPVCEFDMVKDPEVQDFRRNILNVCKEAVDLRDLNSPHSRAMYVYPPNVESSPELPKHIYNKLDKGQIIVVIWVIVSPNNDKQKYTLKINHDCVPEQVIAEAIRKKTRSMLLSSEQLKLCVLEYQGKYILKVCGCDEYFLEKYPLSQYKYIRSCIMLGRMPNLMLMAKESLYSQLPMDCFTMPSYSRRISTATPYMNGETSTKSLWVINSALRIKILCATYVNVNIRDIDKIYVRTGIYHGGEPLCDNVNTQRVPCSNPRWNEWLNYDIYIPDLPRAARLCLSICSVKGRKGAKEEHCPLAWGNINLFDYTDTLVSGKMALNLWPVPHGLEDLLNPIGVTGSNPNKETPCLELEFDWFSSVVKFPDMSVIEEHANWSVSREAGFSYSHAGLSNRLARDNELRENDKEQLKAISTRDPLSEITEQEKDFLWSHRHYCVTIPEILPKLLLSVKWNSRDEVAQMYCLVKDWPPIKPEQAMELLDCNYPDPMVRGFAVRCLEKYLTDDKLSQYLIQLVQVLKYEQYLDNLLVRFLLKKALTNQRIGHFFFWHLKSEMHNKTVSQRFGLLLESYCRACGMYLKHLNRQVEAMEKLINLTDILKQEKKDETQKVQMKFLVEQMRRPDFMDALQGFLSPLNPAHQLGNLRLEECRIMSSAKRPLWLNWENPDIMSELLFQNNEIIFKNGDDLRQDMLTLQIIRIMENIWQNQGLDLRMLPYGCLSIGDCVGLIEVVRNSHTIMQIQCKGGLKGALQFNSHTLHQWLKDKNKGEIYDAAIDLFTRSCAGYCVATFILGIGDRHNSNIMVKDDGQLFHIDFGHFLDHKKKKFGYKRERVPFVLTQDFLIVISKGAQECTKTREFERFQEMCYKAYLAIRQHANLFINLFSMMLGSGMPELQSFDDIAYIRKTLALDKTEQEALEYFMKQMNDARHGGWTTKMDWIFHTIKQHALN
Sequence of H1047R PIK3CA enzyme (P27986 whole entry partner): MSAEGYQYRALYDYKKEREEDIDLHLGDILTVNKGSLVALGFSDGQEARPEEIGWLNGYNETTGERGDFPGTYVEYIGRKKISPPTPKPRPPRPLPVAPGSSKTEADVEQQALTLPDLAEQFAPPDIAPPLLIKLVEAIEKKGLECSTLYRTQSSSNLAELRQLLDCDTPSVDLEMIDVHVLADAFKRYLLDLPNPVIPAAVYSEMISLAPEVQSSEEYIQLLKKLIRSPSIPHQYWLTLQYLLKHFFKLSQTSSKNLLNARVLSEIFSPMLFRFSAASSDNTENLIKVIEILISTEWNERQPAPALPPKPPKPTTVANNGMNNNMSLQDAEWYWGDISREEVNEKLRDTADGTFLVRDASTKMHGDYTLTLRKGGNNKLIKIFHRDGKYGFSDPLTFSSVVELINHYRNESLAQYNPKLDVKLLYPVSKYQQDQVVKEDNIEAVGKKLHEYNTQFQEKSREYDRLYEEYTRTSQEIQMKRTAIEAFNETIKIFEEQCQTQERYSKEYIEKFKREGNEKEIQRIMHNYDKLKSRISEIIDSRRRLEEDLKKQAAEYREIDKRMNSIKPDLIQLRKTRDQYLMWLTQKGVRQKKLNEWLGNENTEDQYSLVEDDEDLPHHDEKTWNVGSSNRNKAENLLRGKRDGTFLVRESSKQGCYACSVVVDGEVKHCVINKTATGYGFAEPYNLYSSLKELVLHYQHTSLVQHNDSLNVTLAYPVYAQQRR

This assay concerns the target H1047R PIK3CA enzyme (Homo sapiens, UniProt P42336, H1047R). Kind of assay: ADP-Glo Biochemical PIK3CA Kinase Assay. The method, then:
Compounds to be assayed were plated in 16 doses of 1:2 serial dilutions (20 nL volume each well) on a 1536-well plate, and the plate warmed to room temperature. […] To the well was added 1 μL of 200 μM ATP and 20 μM of diC8-PIP2 in Substrate Assay Buffer (50 mM HEPES pH7.4, 50 mM NaCl, 5 mM DTT and 0.03% CHAPS) to start the reaction, and the plate was shaken for 10 seconds, then spun briefly at 1500 rpm, and then incubated for 60 minutes at room temperature. The reaction was stopped by adding 2 μL of ADP-Glo reagent (Promega), and spinning briefly at 1500 rpm, and then incubating for 40 minutes. ADP-Glo Detection reagent (Promega) was added and the plate spun briefly at 1500 rpm, then incubated for 30 minutes.
The molecule `Cc1ccccc1C1NC(=O)c2cc(C(O)CO)cc(NC(=O)c3csc4ccccc34)c21` (mixture of isomers) [Compound I-139, N-[6-(1,2-Dihydroxyethyl)-3-(2-methylphenyl)-1-oxo-2,3-dihydro-1H-isoindol-4-yl]-1-benzothiophene-3-carboxamide] came in with an IC50 of at most 0.1 µM.
Molecule `O=C1NC(c2cc(F)ccc2Cl)c2c(NC(=O)N3CCCC(C(F)(F)F)C3)cc(Br)cc21` (mixture of isomers) [Compound I-432] returned an IC50 of 0.5 to 1 µM.
`O=C1NC(c2cc(F)ccc2Cl)c2c(NC(=O)C3CCCC(C(F)(F)F)C3)cc(Br)cc21` (mixture of isomers) [Compound I-1323] gave a half-inhibitory concentration (IC50) of 0.1 to 0.5 µM.
As for `CN1CC(COc2cc(NC(=O)c3cc(F)cc(C(F)(F)F)c3)c3c(c2)C(=O)NC3c2cc(F)ccc2Cl)CC1=O` (mixture of isomers) [Compound I-1348], the figure is at most 0.1 µM; as for `CC1(C(=O)Nc2cc(Br)cc3c2C(c2cc(F)ccc2Cl)NC3=O)CCCC(C(F)(F)F)C1` (mixture of isomers) [Compound I-1358], 0.1 to 0.5 µM; as for `Cn1nccc1C(F)c1cc(NC(=O)c2cc(F)cc(C(F)(F)F)c2)c2c(c1)C(=O)NC2c1cc(F)ccc1Cl` (mixture of isomers) [Compound I-1379], at most 0.1 µM.
Take `CC(=O)N1CCCCC1C(=O)Nc1cc(-c2ccc3ncnn3c2)cc2c1C(c1cc(F)ccc1Cl)NC2=O` (mixture of isomers) [Compound I-1804]: the half-inhibitory concentration (IC50) lay in the range of 10 to 100 µM.
With `O=C1NC(c2cc(F)ccc2Cl)c2c(NC(=O)C3CCCC(C(F)(F)F)C3)cc(-c3ccc4ncnn4c3)cc21` (mixture of isomers) [Compound I-1816] the figure was at most 0.1 µM.
Consider `O=C1NC(c2cc(F)ccc2Cl)c2c(NC(=O)C3COCCN3)cc(-c3ccc4ncnn4c3)cc21` (mixture of isomers) [Compound I-1991], for which the IC50 fell in the range of 10 to 100 µM.
With `O=C1NC(c2cc(F)ccc2Cl)c2c(NC(=O)C3CCCC(C(F)(F)F)N3)cc(-c3ccc4ncnn4c3)cc21` (mixture of isomers) [Compound I-1992] the figure was 1 to 10 µM; with `COC1CCCC(C(=O)Nc2cc(-c3ccc4ncnn4c3)cc3c2C(c2cc(F)ccc2Cl)NC3=O)C1` (mixture of isomers) [Compound I-2037], 10 to 100 µM; with `O=C1NC(c2cc(F)ccc2Cl)c2c(NC(=O)C3CNCC(C(F)(F)F)C3)cc(-c3ccc4ncnn4c3)cc21` (mixture of isomers) [Compound I-2051], 10 to 100 µM.
As for `O=C1NC(c2cc(F)ccc2Cl)c2c(NC(=O)C3(O)CCCC(C(F)(F)F)C3)cccc21` (mixture of isomers) [Compound I-2088], the figure is 10 to 100 µM.
As for `CC(c1nn[nH]c1C(=O)Nc1cccc2c1C(c1cc(F)ccc1Cl)NC2=O)C(F)(F)F` (mixture of isomers) [Compound I-2180], the figure is 10 to 100 µM.
`C=CC(CC(=O)Nc1cccc2c1C(c1cc(F)ccc1Cl)NC2=O)C(C)C(F)(F)F` (mixture of isomers) [Compound I-2195] showed a 50% inhibitory concentration (IC50) of 1 to 10 µM.
In turn, `CC(C(CO)CC(=O)Nc1cccc2c1C(c1cc(F)ccc1Cl)NC2=O)C(F)(F)F` (mixture of isomers) [Compound I-2197] showed a 50% inhibitory concentration (IC50) of 10 to 100 µM.
As for `O=C(Nc1cccc2c1C(C1CCCC(O)C1)NC2=O)c1cc(F)cc(C(F)(F)F)c1` (mixture of isomers) [Compound I-2224], the figure is 10 to 100 µM.
With `O=C(Nc1cccc2c1C(C1CCCC(O)C1)NC2=O)c1cc(F)cc(C(F)(F)F)c1` (mixture of isomers) [Compound I-2226] the figure was 10 to 100 µM; with `O=C(Nc1cccc2c1C(C1CCCC(O)C1)NC2=O)c1cc(F)cc(C(F)(F)F)c1` (mixture of isomers) [Compound I-2227], 10 to 100 µM; with `O=C1NC(c2cc(F)ccc2Cl)c2c(NC(=O)N3c4ccccc4C(O)C34CC4)cccc21` (mixture of isomers) [Compound I-2280], 10 to 100 µM.
As for `O=C1NC(c2cc(F)ccc2Cl)c2c(NC(=O)C3CCc4ccccc4C3)cccc21` (mixture of isomers) [Compound I-2283], the figure is 10 to 100 µM.
Turning to `O=C1NC(c2cc(F)ccc2Cl)c2c(NC(=O)N3CC(CO)c4ccccc43)cccc21` (mixture of isomers) [Compound I-2314], the half-maximal inhibitory concentration (IC50) was in the range of 1 to 10 µM.
With `O=C1NC(c2cc(F)ccc2Cl)c2c(NC(=O)C3CCCc4ccccc4C3)cccc21` (mixture of isomers) [Compound I-2375] the figure was 10 to 100 µM; with `O=C1NC(c2cc(F)ccc2Cl)c2c(NC(=O)N3CC(O)c4cc(Cl)ccc43)cccc21` (mixture of isomers) [Compound I-2376], 1 to 10 µM.
With `CC(C)N1C[C@H](O)C[C@H]1C(=O)Nc1cccc2c1C(c1cc(F)ccc1Cl)NC2=O` (mixture of isomers) [Compound I-2392] the figure was 10 to 100 µM; with `CCC1C(C)CCN1C(=O)Nc1cccc2c1C(c1cc(F)ccc1Cl)NC2=O` (mixture of isomers) [Compound I-2394], 1 to 10 µM.
As to `CCC1CCCN1C(=O)Nc1cccc2c1C(c1cc(F)ccc1Cl)NC2=O` (mixture of isomers) [Compound I-2395], the half-maximal inhibitory concentration (IC50) was 1 to 10 µM.
As for `CC(C)C1CCCN1C(=O)Nc1cccc2c1C(c1cc(F)ccc1Cl)NC2=O` (mixture of isomers) [Compound I-2396], the figure is 1 to 10 µM; as for `CC(N1C[C@H](O)C[C@H]1C(=O)Nc1cccc2c1C(c1cc(F)ccc1Cl)NC2=O)C(F)(F)F` (mixture of isomers) [Compound I-2407], 10 to 100 µM.
As for `N#C[C@H]1CCN(C(=O)Nc2cc(-c3ccc4ncnn4c3)cc3c2C(c2cc(F)ccc2Cl)NC3=O)C1` (mixture of isomers) [Compound I-2415], the figure is 10 to 100 µM; as for `N#C[C@@H]1CCN(C(=O)Nc2cc(-c3ccc4ncnn4c3)cc3c2C(c2cc(F)ccc2Cl)NC3=O)C1` (mixture of isomers) [Compound I-2416], 10 to 100 µM; as for `CC(C)C1CCN(C(=O)Nc2cccc3c2C(c2cc(F)ccc2Cl)NC3=O)C1` (mixture of isomers) [Compound I-2419], 10 to 100 µM.
As for `CC(C1CCN(C(=O)Nc2cccc3c2C(c2cc(F)ccc2Cl)NC3=O)C1)C(F)(F)F` (mixture of isomers) [Compound I-2421], the figure is 10 to 100 µM; as for `Cc1ccccc1C1NC(=O)c2cccc(NC(=O)N3CCNC(C(F)(F)F)C3)c21` (racemic) [Compound I-60], 10 to 100 µM.
`Cc1ccccc1C1NC(=O)c2cc([C@@H](C)NC(=O)OC(C)(C)C)cc(NC(=O)c3csc4ccccc34)c21` (mixture of isomers) [Compound I-89]: the IC50 lay within 0.1 to 0.5 µM.
As for `Cc1ccccc1C1NC(=O)c2cc([C@@H](C)N)cc(NC(=O)c3csc4ccccc34)c21` (mixture of isomers) [Compound I-90], the figure is at most 0.1 µM; as for `O=C(Nc1cc(N[C@H]2C[C@@H](O)C2)cc2c1C(c1cc(F)ccc1Cl)NC2=O)c1cc(F)cc(C(F)(F)F)c1` (mixture of isomers) [Compound I-478], at most 0.1 µM; as for `O=C1NC(c2cc(F)ccc2Cl)c2c(NC(=O)N3CCCC(c4ccccc4)C3)cc(Br)cc21` (racemic) [Compound I-597], 1 to 10 µM.
As for `O=C1NC(c2cc(F)ccc2Cl)c2c(NC(=O)N3CCC(c4ccccc4)C3)cc(Br)cc21` (racemic) [Compound I-598], the figure is 1 to 10 µM; as for `O=C1NC(c2cc(F)ccc2Cl)c2c(NC(=O)N3CC(C(F)(F)F)CC(C(F)(F)F)C3)cc(Br)cc21` (racemic) [Compound I-661], 1 to 10 µM; as for `O=C(Nc1cc(C2CCO2)cc2c1C(c1cc(F)ccc1Cl)NC2=O)c1cc(F)cc(C(F)(F)F)c1` (racemic) [Compound I-662], 0.1 to 0.5 µM.
`CC(O)c1cc(NC(=O)c2cc(F)cc(C(F)(F)F)c2)c2c(c1)C(=O)NC2c1cc(F)ccc1Cl` (racemic) [Compound I-664] displayed a concentration for half-maximal inhibition (IC50) of at most 0.1 µM.
`CC(O)Cc1cc(NC(=O)c2cc(F)cc(C(F)(F)F)c2)c2c(c1)C(=O)NC2c1cc(F)ccc1Cl` (racemic) [Compound I-665]: the IC50 is at most 0.1 µM.
Take `CN1CCN(C(=O)Nc2cc(Br)cc3c2C(c2cc(F)ccc2Cl)NC3=O)CC1(C)C` (racemic) [Compound I-685]: the half-inhibitory concentration (IC50) lay within 10 to 100 µM.
As for `CC1CN(C(=O)Nc2cc(Br)cc3c2C(c2cc(F)ccc2Cl)NC3=O)CCN1C` (racemic) [Compound I-686], the figure is 10 to 100 µM; as for `O=C1NC(c2cc(F)ccc2Cl)c2c(NC(=O)N3CC[C@H](F)[C@@H](F)C3)cc(Br)cc21` (mixture of isomers) [Compound I-720], 10 to 100 µM.
As for `O=C(Nc1cc(N[C@@H]2CC[C@H]2O)cc2c1C(c1cc(F)ccc1Cl)NC2=O)c1cc(F)cc(C(F)(F)F)c1` (mixture of isomers) [Compound I-721], the half-maximal inhibitory concentration (IC50) is at most 0.1 µM.
With `O=C(Nc1cc(C2CCOC2)cc2c1C(c1cc(F)ccc1Cl)NC2=O)c1cc(F)cc(C(F)(F)F)c1` (racemic) [Compound I-778] the figure was at most 0.1 µM.
With `CO[C@@H]1CC[C@H]1Nc1cc(NC(=O)c2cc(F)cc(C(F)(F)F)c2)c2c(c1)C(=O)NC2c1cc(F)ccc1Cl` (mixture of isomers) [Compound I-780] the figure was at most 0.1 µM.
With `COc1ccc([C@H](C)N2C(=O)c3cc(Br)cc(N)c3[C@H]2c2cc(F)ccc2Cl)cc1` (racemic) [Compound I-862] the figure was 1 to 10 µM.
`COc1ccc([C@H](C)N2C(=O)c3cc(Br)cc(N)c3[C@@H]2c2cc(F)ccc2Cl)cc1` (racemic) [Compound I-863]: the IC50 was 1 to 10 µM.
With `O=C(Nc1cc(O[C@@H]2COC[C@H]2O)cc2c1C(c1cc(F)ccc1Cl)NC2=O)c1cc(F)cc(C(F)(F)F)c1` (mixture of isomers) [Compound I-1192] the figure was at most 0.1 µM.

Values taken from patent US12581252B2, “Substituted pyrrolo[3,4-b]pyridines as PI3K-α inhibitors” (Relay Therapeutics, Inc., priority 2020, dated 2026).
